Measured values from patent EP3991732A1, “USE OF CLOFAZIMINE IN HEPATOCELLULAR CARCINOMA” (UNIVERSITE DE GENEVE, priority 2020, dated 2022).

Experiments:
[1] = test system: Wnt signalling (Hep3B); assay: TopFlash dual luciferase assay, Hep3B; assay type: cell-based, human
Description: (§1) Briefly, 50 µl of indicated cell lines at 84'000/ml for Huh7, or 96'000/ml for SNU398, or 144'000/ml for HepG2, Hep3B were distributed in a white opaque 384-well plate. The cells were maintained in their respective culture mediums and incubated at 37°C, 5% CO2 overnight for attachment. Afterwards, the cells are double-transfected (1:1 mixture) with the Wnt-specific TopFlash reporter plasmid (Syngene) and a Wnt-independent CMV-Renilla plasmid monitoring the general level of cell transcription (Addgene, Cambridge, MA, USA). The relative nature of this representation (ratio of the TopFlash to the CMV-Renilla levels) permits to compare Wnt pathway levels across cell types, being independent from individual cell transfection efficiency.
(§2) Transfection was carried out as described in the manufacturer's protocol using 12 µg/ml of DNA and 40 µl/ml XtremeGENE 9 reagent (Roche). The next day, the medium of each well was replaced 30 µl fresh medium containing Wnt3a (500 ng/ml) (purified as described by (Koval and Katanaev, 2011, Biochemical Journal 433, 435) or GSK3β inhibitor (CHIR99021, Sigma-Aldrich) and clofazimine at 5, 10, and 15 µM concentrations (following 1h of preincubation with the compound). After overnight incubation, the supernatant in each well was removed and the luciferase activity was measured as described (Koval and Katanaev, 2011, supra). […]

[2] = test system: Wnt signalling (HepG2); assay: TopFlash dual luciferase assay, HepG2; assay type: cell-based, human
Description: as §1, §2

[3] = test system: Wnt signalling (Huh7); assay: TopFlash dual luciferase assay, Huh7; assay type: cell-based, human
Description: as §1, §2

[4] = test system: Wnt signalling (SNU398); assay: TopFlash dual luciferase assay, SNU398; assay type: cell-based, human
Description: as §1, §2

[5] = test system: HepG2; assay: MTT survival assay, HepG2; assay type: cell-based; conditions: Homo sapiens, HepG2 cells, incubation 4-7 days
Description: (§3) The four hepatocellular carcinoma (HCC) cell lines were tested in MTT survival assay with clofazimine as described below: 50 µl of the indicated cell lines re-suspended at 60'000 cells/ml for HepG2, Hep3B, at 35'000/ml for Huh7 and at 40'000/ml for SNU398 were added into each well of a transparent 384-well plate. The cells were maintained in DMEM containing 10% FBS for Hep3B; RPMI with 10% FBS for SNU398; DMEM without glucose containing 10% FBS and 1g/L glucose for Huh7 and MEM without glucose containing 10% FBS for HepG2 and incubated at 37°C, 5% CO2 overnight. The medium of each well was replaced by 100 µl fresh medium the next day containing the indicated concentrations of clofazimine. After incubation for 4-7 days (depending on the growth rate of line), the medium in each well was replaced by 50 µl of 0.5 mg/ml Thiazolyl blue (Carl Roth) solution in 1xPBS. The plates were incubated for 3h at 37°C. Then the solution was removed and 50 µl DMSO was added into each well. Absorbance at 570 nm was measured in a Tecan Infinite M200 PRO plate reader.

[6] = test system: SNU398; assay: MTT survival assay, SNU398; assay type: cell-based, human
Description: as §3

[7] = test system: Hep3B; assay: MTT survival assay, Hep3B; assay type: cell-based, human
Description: as §3

[8] = test system: Huh7; assay: MTT survival assay, Huh7; assay type: cell-based; conditions: Homo sapiens, Huh-7, Huh7 cells, incubation 4-7 days
Description: as §3

[9] = versus relatively low basal level
[10] = clofazimine 5, 10, 15 µM, Wnt3a 500 ng/ml

Row | SMILES | stimulation of Wnt signalling levels by activator (TopFlash) [1, 9] | stimulation of Wnt signalling levels by activator (TopFlash) ([2]; versus very high basal level) | stimulation of Wnt signalling levels by activator (TopFlash) [3, 9] | stimulation of Wnt signalling levels by activator (TopFlash) ([4]; versus very high basal level) | IC50 [5] | inhibiting effect on Wnt signaling (Wnt3a-induced response in the TopFlash assay) [1, 10] | IC50 ([6]; Homo sapiens, SNU-398, SNU398 cells, MTT, incubation 4-7 days) | stronger sensitivity to growth inhibition than HepG2 and Huh7 ([6]; SNU398 versus HepG2 and Huh7, MTT assay) | stronger sensitivity to growth inhibition than HepG2 and Huh7 ([7]; Hep3B versus HepG2 and Huh7, MTT assay) | IC50 ([7]; Homo sapiens, Hep3B cells, MTT, incubation 4-7 days) | IC50 [8] | inhibiting effect on Wnt signaling (Wnt3a-induced response in the TopFlash assay) [2, 10] | inhibiting effect on Wnt signaling (Wnt3a-induced response in the TopFlash assay) [3, 10] | inhibiting effect on Wnt signaling (Wnt3a-induced response in the TopFlash assay) [4, 10]
1 | Cc1c[nH]c(-c2cnc(NCCNc3ccc(C#N)cn3)nc2-c2ccc(Cl)cc2Cl)n1 [CHIR99021] | strongly stimulated | not at all or to at best limited extent further increased | strongly stimulated | not at all or to at best limited extent further increased | – | – | – | – | – | – | – | – | – | –
2 | CC(C)N=c1cc2n(-c3ccc(Cl)cc3)c3ccccc3nc-2cc1Nc1ccc(Cl)cc1 [clofazimine, N,5-bis(4-chlorophenyl)-3-(propan-2-ylimino)-3,5-dihydrophenazin-2-amine] | – | – | – | – | 17 µM | inhibited | 1 to 2 µM | > 10 fold | > 10 fold | 1 to 2 µM | 13 µM | non-responsive | non-responsive | inhibited
